Experimental data published in patent publication US20160200789A1, “IL4 CONJUGATED TO ANTIBODIES AGAINST EXTRACELLULAR MATRIX COMPONENTS” (PHILOGEN S.P.A., priority 2013, published 2016).

Key:
[1] = tested on: F9 teratocarcinoma; test: Quantitative biodistribution in F9 tumour-bearing mice; format: in vivo, mouse; details: 15 μg radioiodinated protein i.v., 24 hours
Protocol: The in vivo targeting performance was assessed by quantitative biodistribution where 15 μg of radioiodinated fusion protein was injected i.v. into the lateral tail vein of immunocompetent 11-12 week old female Sv129Ev mice (obtained from Charles River [Germany]), bearing sub-cutaneously grafted F9 tumours (for labelling protocol, see (Pasche et al. 2011)). Mice were sacrificed 24 hours after injection, organs were excised, weighed and radioactivity was measured using a Packard Cobra γ counter.

[2] = tested on: CTLL2 cells; test: CTLL2 cell proliferation bioactivity assay; format: cell-based; details: 24 h
Protocol: The biological activity of murine IL4 was determined by its ability to stimulate the proliferation of CTLL2 cells. […] After incubation at 37° C. for 24 h, cell proliferation was determined with Cell Titer Aqueous One Solution (Promega).

[3] = molecular target: T1, EDA domain of fibronectin (Homo sapiens, UniProt P02751); test: Surface plasmon analysis (BIAcore) on EDA antigen-coated sensor chip; format: binding
T1 construct: surface plasmon analysis (BIAcore) on an EDA antigen-coated sensor chip
T1 sequence (P02751 1727-1814 limits assumed): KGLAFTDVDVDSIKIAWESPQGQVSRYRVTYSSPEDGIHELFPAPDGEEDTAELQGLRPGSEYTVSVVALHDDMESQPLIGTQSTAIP
From the text: The fusion protein was expressed and purified to homogeneity as described for F8-IL4 above.

[4] = tested on: Fibrosarcoma Wehi-164; test: Therapy of Wehi-164 fibrosarcoma-bearing mice; format: in vivo, mouse; details: 4 cycles i.v. every 48 h, equimolar doses
Protocol: Fibrosarcoma Wehi-164 exponentially growing cells were harvested, repeatedly washed and re-suspended in serum-free medium prior to injection. The tumor cells were injected subcutaneously (5×10^6) in the right flank of Balb/c mice. Tumor weights (mg=mm^3) were calculated as follows: (length [mm]×width^2 [mm^2])/2.
Treatment started when tumors reached approximately 100 mg. Mice received 4 cycles of therapy, every 48 h starting from day 5 after tumor cell injection. L19-IL4 (SEQ ID NO:64) was administered i.v. at the dose of 130 μg/mouse; equimolar amounts of KSF-IL4 (130 μg/mouse) (SEQ ID NO:44), KSF-IL10 (150 μg/mouse) (SEQ ID NO:65) and L19-IL10 (150 μg/mouse) (SEQ ID NO:66) were administered. Control mice received sterile vehicle solution (PBS). The results are shown in FIG. 16 (mean tumour weight over time). The number of mice in each treatment group was 3-4.

[5] = tested on: tumour neovascular structures in murine F9, CT26 and A20 tumours; test: Immunofluorescence on untreated tumour sections; set-up: species or system mouse; details: biotinylated protein on F9, CT26 and A20 tumour sections
From the text: For detection streptavidin-Alexa Fluor 488 and anti-rat-Alexa Fluor 594 (Invitrogen) were used. Slides were mounted with fluorescent mounting medium (Dako) and analyzed with an Axioskop2 mot plus microscope (Zeiss).

[6] = tested on: A20 lymphoma; test: Therapy studies in A20 tumour-bearing mice; details: A20, F8-IL4 vs KSF-IL4 study
From the text: (§1) Data represent mean tumour volumes (±SEM), n=5 mice per group. […] Data represent mean tumour volumes (±SEM), n=5 mice per group.
Differences in tumor volume, % ID/g and Tumor-to-blood ratio between therapeutic groups were compared using Graphpad Prism's repeated measures (mixed model) ANOVA analysis.
For this, as well as the other experiments described below, F9 teratocarcinoma (CRL-1720; ATCC, Molsheim Cedex, France), CT26 colon carcinoma (CRL-2638; ATCC, Molsheim Cedex, France) and A20 lymphoma (TIB-208; ATCC, Molsheim Cedex, France) were grown according to the supplier's protocol and tumour cells implanted subcutaneously in the flank using 25×10^6 cells (F9), 2×10^6 cells (CT26) or 8×10^6 cells (A20). F9 teratocarcinoma cells were implanted into 129/SvEv mice (Charles River, Sulzfeld, Germany), CT26 colon carcinoma cells were implanted into Balb/c mice (Elevage Janvier, Le Genest-St-Isle, France) and A20 lymphoma cells were implanted into Balb/c mice (Elevage Janvier, Le Genest-St-Isle, France). Mice were sacrificed when tumour volumes reached a maximum of 2000 mm^3.

[7] = tested on: CT26 colon carcinoma; test: Therapy studies in CT26 tumour-bearing mice
From the text: as §1
In the description of the below experiments, data are expressed as the mean (±SEM). Differences in tumor volume, % ID/g and Tumor-to-blood ratio between therapeutic groups were compared using Graphpad Prism's repeated measures (mixed model) ANOVA analysis.
Mice were sacrificed when tumour volumes reached a maximum of 2000 mm^3.
In order to study a second immunocompetent mouse model of cancer, the inventors focused on Balb/c mice (obtained from Elevage Janvier [France]) bearing subcutaneous CT26 tumours of colorectal origin.

[8] = tested on: endometriotic lesions in Balb/c mice; test: Endometriosis model in Balb/c mice; format: in vivo, mouse; details: 200 μg/mouse i.v. days 1, 4, 7; day 15; vs PBS
Protocol: Endometriosis was induced in sixty eight-week old female Balb/c mice according to the protocol described by Somigliana et al. (1999).
One day after the implantation of endometrial tissue, pairs of mice (who received tissue from the same donor) were treated either with intravenous (i.v.) injections of F8-murine IL4 (200 μg/mouse; SEQ ID NO: 21) or PBS (group 1); or with i.v. injections of KSF-murine IL4 (200 μg/mouse; SEQ ID NO: 44) or PBS (group 2). The same treatment was repeated at days 4 and 7. Mice were sacrificed at day 15.

[9] = tested on: F9 teratocarcinoma; test: Biodistribution of F8-hIL4 and F8-hIL4-N284Q in F9 tumour-bearing mice; format: in vivo, mouse; details: 10 μg radioiodinated antibody i.v., 24 hours
Protocol: 11-12 weeks old female 129/SvEv mice were obtained from Charles River (Sulzfeld, Germany). Tumor cells were implanted subcutaneously in the flank of the mice using 25×10^6 cells.
The in vivo targeting performance of F8-hIL4, and its unglycosylated variant F8-hIL4-N284Q were evaluated in quantitative biodistribution studies. The antibodies were radioiodinated using […] and Chloramine T hydrate according to the protocol of Pasche et al. 2011. 10 μg of each radioiodiated antibody were injected into the lateral tail vein of the mice. Injected mice were sacrificed 24 hours after injection. Organs were then excised and radioactivity was counted in Cobra gamma counter (Packard, Meriden, Conn.).

[10] = molecular target: T2, EDA in the pancreas of diabetic mice (Mus musculus, UniProt P11276); test: Immunofluorescence staining of pancreas of diabetic mice; details: antibodies in SIP format, 2 μg/ml
T2 construct: from tissue; host or cells: pancreas of streptozotocin-treated diabetic C57BL/6J mice (frozen sections)
T2 sequence (P11276 33-2477): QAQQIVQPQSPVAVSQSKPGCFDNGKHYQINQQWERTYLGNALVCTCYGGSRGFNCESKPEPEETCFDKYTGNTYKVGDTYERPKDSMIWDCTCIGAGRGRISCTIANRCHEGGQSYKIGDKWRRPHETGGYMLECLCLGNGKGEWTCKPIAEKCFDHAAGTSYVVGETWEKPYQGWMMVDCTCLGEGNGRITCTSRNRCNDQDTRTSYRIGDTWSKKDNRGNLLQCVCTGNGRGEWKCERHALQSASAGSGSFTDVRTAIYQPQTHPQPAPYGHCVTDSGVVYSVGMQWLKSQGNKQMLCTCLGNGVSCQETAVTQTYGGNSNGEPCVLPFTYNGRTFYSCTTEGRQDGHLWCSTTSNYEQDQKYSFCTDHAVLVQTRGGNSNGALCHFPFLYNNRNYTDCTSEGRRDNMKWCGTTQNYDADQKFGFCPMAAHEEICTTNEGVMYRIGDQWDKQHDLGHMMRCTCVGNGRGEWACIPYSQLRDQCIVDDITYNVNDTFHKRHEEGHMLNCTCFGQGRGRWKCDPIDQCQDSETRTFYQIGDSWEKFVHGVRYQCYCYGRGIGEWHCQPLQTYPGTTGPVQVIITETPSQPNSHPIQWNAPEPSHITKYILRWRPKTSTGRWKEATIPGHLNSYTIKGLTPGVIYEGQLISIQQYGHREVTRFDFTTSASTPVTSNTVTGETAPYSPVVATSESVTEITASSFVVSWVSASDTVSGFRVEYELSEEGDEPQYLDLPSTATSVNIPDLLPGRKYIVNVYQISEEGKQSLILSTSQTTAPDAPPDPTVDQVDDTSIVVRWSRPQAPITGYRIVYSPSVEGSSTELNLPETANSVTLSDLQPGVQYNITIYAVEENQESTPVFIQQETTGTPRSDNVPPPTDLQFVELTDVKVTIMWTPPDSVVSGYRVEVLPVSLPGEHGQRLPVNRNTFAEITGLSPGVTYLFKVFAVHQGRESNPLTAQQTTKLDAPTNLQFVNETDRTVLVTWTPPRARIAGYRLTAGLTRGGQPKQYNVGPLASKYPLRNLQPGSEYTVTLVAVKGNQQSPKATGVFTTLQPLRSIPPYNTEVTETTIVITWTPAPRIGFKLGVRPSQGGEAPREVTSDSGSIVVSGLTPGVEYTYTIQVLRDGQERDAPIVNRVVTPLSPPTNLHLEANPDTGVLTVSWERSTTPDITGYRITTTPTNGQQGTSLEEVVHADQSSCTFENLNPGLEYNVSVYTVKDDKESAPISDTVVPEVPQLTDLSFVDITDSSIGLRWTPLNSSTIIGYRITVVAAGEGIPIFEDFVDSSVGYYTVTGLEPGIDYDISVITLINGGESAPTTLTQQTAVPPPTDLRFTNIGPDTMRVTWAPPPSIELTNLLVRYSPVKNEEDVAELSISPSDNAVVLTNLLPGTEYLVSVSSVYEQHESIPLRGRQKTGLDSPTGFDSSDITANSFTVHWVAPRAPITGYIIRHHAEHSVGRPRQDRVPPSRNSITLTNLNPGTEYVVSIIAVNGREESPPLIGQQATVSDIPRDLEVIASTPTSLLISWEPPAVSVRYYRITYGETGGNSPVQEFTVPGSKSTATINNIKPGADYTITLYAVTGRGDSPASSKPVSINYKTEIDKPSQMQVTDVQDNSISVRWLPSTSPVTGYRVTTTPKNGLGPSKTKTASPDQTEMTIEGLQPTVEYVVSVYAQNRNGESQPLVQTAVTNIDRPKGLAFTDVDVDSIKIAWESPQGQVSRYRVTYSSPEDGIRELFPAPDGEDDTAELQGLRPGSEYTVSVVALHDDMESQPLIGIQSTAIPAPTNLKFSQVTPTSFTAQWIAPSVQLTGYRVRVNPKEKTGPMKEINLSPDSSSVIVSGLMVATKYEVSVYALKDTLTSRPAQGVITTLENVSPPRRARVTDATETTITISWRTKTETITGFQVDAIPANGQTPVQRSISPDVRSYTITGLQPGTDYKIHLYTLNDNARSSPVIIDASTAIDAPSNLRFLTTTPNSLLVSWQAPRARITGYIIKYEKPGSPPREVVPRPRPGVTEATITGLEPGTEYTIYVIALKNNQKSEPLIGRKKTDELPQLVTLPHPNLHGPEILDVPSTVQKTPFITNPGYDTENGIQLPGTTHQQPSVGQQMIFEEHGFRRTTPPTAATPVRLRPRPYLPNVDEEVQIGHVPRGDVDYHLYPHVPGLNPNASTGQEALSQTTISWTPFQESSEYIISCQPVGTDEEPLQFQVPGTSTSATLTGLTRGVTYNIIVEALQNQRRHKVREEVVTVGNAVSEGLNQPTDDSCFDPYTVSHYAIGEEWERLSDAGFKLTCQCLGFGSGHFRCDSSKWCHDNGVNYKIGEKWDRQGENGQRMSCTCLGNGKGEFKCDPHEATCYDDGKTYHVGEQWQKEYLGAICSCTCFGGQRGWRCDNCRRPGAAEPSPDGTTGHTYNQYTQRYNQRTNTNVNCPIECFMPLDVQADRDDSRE
Protocol: Type 1 diabetes is an autoimmune disease characterized by progressive destruction of pancreatic beta-cells. IL4 has been previously proposed as a potential medicament for preventing diabetes mellitus type 1 (Walz et al. 2002). Six week old C57BL/6J male mice were treated for 5 consecutive days with Streptozotocin (50 mg/kg by intraperitoneal [i.p.] injection). Blood glucose levels were recorded daily and mice were deemed diabetic if their non-fasted blood glucose levels were >300-400 mg/decilitre (dL). Pancreatic tissue was collected from the diabetic mice and snap frozen before cutting and staining. The staining procedure was performed according to the method set out in Pfaffen et al., Eur. J. Nucl. Med. Mol. Imaging (2010). Briefly, purified antibodies in SIP format (2 μg/ml), including antibody F8 (SEQ ID NO: 69), were added onto the sections and detected with a rabbit […] antibody (Dako). A further incubation with the fluorescently labelled goat anti-rabbit IgG Alexa Fluor 488 antibody (Life Technologies) was performed prior to imaging. Blood vessels and cell nuclei were detected using a rat anti-mouse CD31 antibody (BD Bioscience) followed incubation with a donkey anti-rat Alexa 594 antibody (Life Technologies), and DAPI, respectively. The filled white arrows in FIG. 19 indicate CD31^+ blood vessels. […]

KSF-IL4: antibody KSF (specific to hen egg lysozyme, negative control) in diabody format fused to murine interleukin 4 [reference compound]
accumulation at the tumour site (% ID/g) [1]: not observed | EC50 ([2]; CTLL2 cells, 20000 cells/well): 0.02 nM | biological cytokine activity ([2]; CTLL2 proliferation): comparable to that of recombinant murine IL4 | affinity for the cognate antigen [3]: retained a high-affinity for the cognate antigen | therapeutic activity (tumour weight) [4]: do not promote any significant therapeutic activity | recognition of tumour neovascular structures [5]: not | statistical significance, tumour volume vs PBS [6]: not statistically significant | therapeutic performance ([7]; 90 μg i.v. every 48 h): not better than saline | statistical significance, tumour volume vs PBS ([7]; CT26, F8-IL4 vs KSF-IL4 study): not statistically significant | number of the endometriotic lesions [8]: did not have a significant effect | volume of the endometriotic lesions [8]: did not have a significant effect

B1: F8-hIL4: F8 diabody fused to human IL4, glycosylated (protein)
chain: EVQLLESGGGLVQPGGSLRLSCAASGFTFSLFTMSWVRQAPGKGLEWVSAISGSGGSTYYADSVKGRFTISRDNSKNTLYLQMNSLRAEDTAVYYCAKSTHLYLFDYWGQGTLVTVSSGGSGGEIVLTQSPGTLSLSPGERATLSCRASQSVSMPFLAWYQQKPGQAPRLLIYGASSRATGIPDRFSGSGSGTDFTLTISRLEPEDFAVYYCQQMRGRPPTFGQGTKVEIKSSSSGSSSSGSSSSGHKCDITLQEIIKTLNSLTEQKTLCTELTVTDIFAASKNTTEKETFCRAATVLRQFYSHHEKDTRCLGATAQQFHRHKQLIRFLKRLDRNLWGLAGLNSCPVKEANQSTLENFLERLKTIMREKYSKCSS
modifications: Synthetic sequence Amino acid sequence of F8 - (human) IL4 of PCT/EP2014/053998
notes: F8 diabody fused to human IL4, glycosylated
accumulation at the tumor site (% ID/g) [9]: comparable preferential accumulation at the tumor site

B2: F8-hIL4-N284Q: unglycosylated F8-human IL4 mutant, asparagine 284 substituted with glutamine (protein)
chain: EVQLLESGGGLVQPGGSLRLSCAASGFTFSLFTMSWVRQAPGKGLEWVSAISGSGGSTYYADSVKGRFTISRDNSKNTLYLQMNSLRAEDTAVYYCAKSTHLYLFDYWGQGTLVTVSSGGSGGEIVLTQSPGTLSLSPGERATLSCRASQSVSMPFLAWYQQKPGQAPRLLIYGASSRATGIPDRFSGSGSGTDFTLTISRLEPEDFAVYYCQQMRGRPPTFGQGTKVEIKSSSSGSSSSGSSSSGHKCDITLQEIIKTLNSLTEQKTLCTELTVTDIFAASKQTTEKETFCRAATVLRQFYSHHEKDTRCLGATAQQFHRHKQLIRFLKRLDRNLWGLAGLNSCPVKEANQSTLENFLERLKTIMREKYSKCSS
modifications: Synthetic sequence Amino acid sequence of F8 - (human) IL4 N284Q mutant of PCT/EP2014/053998
notes: unglycosylated F8-human IL4 mutant, asparagine 284 substituted with glutamine
accumulation at the tumor site (% ID/g) [9]: comparable preferential accumulation at the tumor site

B3: SIP (F8): antibody F8 in SIP format (scFv fused to epsilon-CH4 domain of human IgE) (protein)
chain: EVQLLESGGGLVQPGGSLRLSCAASGFTFSLFTMSWVRQAPGKGLEWVSAISGSGGSTYYADSVKGRFTISRDNSKNTLYLQMNSLRAEDTAVYYCAKSTHLYLFDYWGQGTLVTVSSGGGGSGGGGSGGGGEIVLTQSPGTLSLSPGERATLSCRASQSVSMPFLAWYQQKPGQAPRLLIYGASSRATGIPDRFSGSGSGTDFTLTISRLEPEDFAVYYCQQMRGRPPTFGQGTKVEIKSGGSGGPRAAPEVYAFATPEWPGSRDKRTLACLIQNFMPEDISVQWLHNEVQLPDARHSTTQPRKTKGSGFFVFSRLEVTRAEWEQKDEFICRAVHEAASPSQTVQRAVSVNPESSRRGGC
colocalization of staining with CD31+ blood vessels [10]: colocalization of EDA and CD31 in the pancreas of diabetic mice
